Results published in paper PMC12396409, “Screening and hit evaluation of a microbial metabolite library against the pathogenic Plasmodium falciparum and Toxoplasma gondii parasites” (International Journal for Parasitology: Drugs and Drug …, 2025).
Like-named read-outs stand apart in the source and are kept apart here. Where a SMILES comes first, the peptide text is derived from it. Bridges are numbered along the chain shown (N, C = ends). [ ]: non-standard residue; d: D form. The star is where a group is joined. ξ: configuration not given here. ξNMePhe(4-NMe2) = CNC(Cc1ccc(N(C)C)cc1)C(=O)O; Picolinoyl(3-OH) = O=C(c1ncccc1O)*; ξPip(4-oxo) = O=C1CCNC(C(=O)O)C1; Phg = N[CH](C(=O)O)c1ccccc1; Abu = CC[CH](N)C(=O)O

Tests used:
[1] = test system: P. falciparum 3D7 parasites; assay: P. falciparum growth inhibition assay, 1-cycle (72 h treatment), SYBR DNA staining (library screen at 2 μg/mL and dose-response); assay type: cell-based, Plasmodium falciparum; conditions: for activity at 2 µg/mL: Plasmodium falciparum, 3D7
[2] = test system: P. falciparum 3D7 parasites; assay: P. falciparum growth inhibition assay, 2-cycle (120 h treatment), delayed-death screen and dose-response; assay type: cell-based, Plasmodium falciparum; conditions: for activity at 2 µg/mL: Plasmodium falciparum, 3D7
[3] = test system: T. gondii RH strain (RH-Tub-eYFP) tachyzoites; assay: microbe, parasite or virus in culture; assay type: cell-based, Toxoplasma gondii; conditions: 72 h, 72 h; for percent parasite growth at 2 µg/mL: Toxoplasma gondii
[4] = library screen at 2 μg/mL, 72 h, % growth, replicate 1
[5] = library screen at 2 μg/mL, 72 h, % growth, replicate 2
[6] = library screen at 2 μg/mL, 120 h, % growth, replicate 1
[7] = library screen at 2 μg/mL, 120 h, % growth, replicate 2
[8] = library screen at 2 μg/mL, % growth, replicate 1
[9] = library screen at 2 μg/mL, % growth, replicate 2
[10] = P. falciparum 3D7, 72 h, library screen at 2 μg/mL, % growth, replicate 1
[11] = P. falciparum 3D7, 72 h, library screen at 2 μg/mL, % growth, replicate 2
[12] = P. falciparum 3D7, 120 h, library screen at 2 μg/mL, % growth, replicate 1
[13] = P. falciparum 3D7, 120 h, library screen at 2 μg/mL, % growth, replicate 2
[14] = T. gondii RH, library screen at 2 μg/mL, % growth, replicate 1
[15] = T. gondii RH, library screen at 2 μg/mL, % growth, replicate 2

## C[C@@H]1C[C@H](C)C[C@H](C)[C@@H](O)CC(=O)O[C@H]([C@@H]2CCC[C@H]2C(=O)O)C/C=C/C=C(/C#N)[C@H](O)[C@@H](C)C1 [Borrelidin]
[1]; P. falciparum, 72 h, screen at 2 μg/mL, replicate 1, read-out: Pf_72h_%Growth_Rep1
  activity at 2 µg/mL: 2.87%
[1]; P. falciparum, 72 h, screen at 2 μg/mL, replicate 2, read-out: Pf_72h_%Growth_Rep2
  activity at 2 µg/mL: -1.49%
[2]; P. falciparum, 120 h, screen at 2 μg/mL, replicate 1, read-out: Pf_120h_%Growth_Rep1
  activity at 2 µg/mL: 4.36%
[2]; P. falciparum, 120 h, screen at 2 μg/mL, replicate 2, read-out: Pf_120h_%Growth_Rep2
  activity at 2 µg/mL: 5.57%
[3]; T. gondii, screen at 2 μg/mL, replicate 1, read-out: Tg_72h_%Growth_Rep1
  percent parasite growth at 2 µg/mL: 0.76%
[3]; T. gondii, screen at 2 μg/mL, replicate 2, read-out: Tg_72h_%Growth_Rep2
  percent parasite growth at 2 µg/mL: 1.62%

## COc1cc(O)c2c(c1)C(=O)c1cc3c(c(O)c1C2=O)C(OC1OC(C)C(OC)C(O)C1OC)C(OC)C(C)(O)C3=O (stereo not drawn) [Steffimycin B]
[1]; P. falciparum, 72 h, parasite screen 2 μg/mL, % growth, replicate 1
  Pf_72h_%Growth_Rep1: 70.82%
[1]; P. falciparum, 72 h, parasite screen 2 μg/mL, % growth, replicate 2
  Pf_72h_%Growth_Rep2: 45.75%
[2]; P. falciparum, 120 h, parasite screen 2 μg/mL, % growth, replicate 1
  Pf_120h_%Growth_Rep1: 57.65%
[2]; P. falciparum, 120 h, parasite screen 2 μg/mL, % growth, replicate 2
  Pf_120h_%Growth_Rep2: 80.04%
[3]; T. gondii, parasite screen 2 μg/mL, % growth, replicate 1
  Tg_72h_%Growth_Rep1: 26.05%
[3]; T. gondii, parasite screen 2 μg/mL, % growth, replicate 2
  Tg_72h_%Growth_Rep2: 22.83%

## CC1=CC[C@H]2C(C)(C)CCC[C@]2(C)[C@H]1CO [Drimenol]
[1]; [4]
  Pf_72h_%Growth_Rep1: 88.25%
[1]; [5]
  Pf_72h_%Growth_Rep2: 89.37%
[2]; [6]
  Pf_120h_%Growth_Rep1: 92.79%
[2]; [7]
  Pf_120h_%Growth_Rep2: 93.83%
[3]; [8]
  Tg_72h_%Growth_Rep1: 153.93%
[3]; [9]
  Tg_72h_%Growth_Rep2: 98.02%

## COc1cc(O)c2c(c1)C=CCC(O)C(O)C(=O)C=CCC(C)OC2=O (stereo not drawn) [BIA-L1160]
[1]; [10]
  Pf_72h_%Growth_Rep1: 82.21%
[1]; [11]
  Pf_72h_%Growth_Rep2: 92.24%
[2]; [12]
  Pf_120h_%Growth_Rep1: 96.72%
[2]; [13]
  Pf_120h_%Growth_Rep2: 110.83%
[3]; [14]
  Tg_72h_%Growth_Rep1: 102.73%
[3]; [15]
  Tg_72h_%Growth_Rep2: 85.36%

## COc1ccc(C[C@H]2NC[C@H](O)[C@H]2OC(C)=O)cc1 [Anisomycin]
[1]; [4]
  Pf_72h_%Growth_Rep1: 2.13%
[1]; [5]
  Pf_72h_%Growth_Rep2: 2.45%
[2]; [6]
  Pf_120h_%Growth_Rep1: 9.82%
[2]; [7]
  Pf_120h_%Growth_Rep2: -15.33%
[3]; [8]
  Tg_72h_%Growth_Rep1: 0.93%
[3]; [9]
  Tg_72h_%Growth_Rep2: 1.73%

## CCC1NC(=O)C(NC(=O)c2ncccc2O)C(C)OC(=O)C(c2ccccc2)NC(=O)C2CC(=O)CCN2C(=O)C(Cc2ccc(N(C)C)cc2)N(C)C(=O)C2CCCN2C1=O (stereo not drawn) [Virginiamycin B] ({Picolinoyl(3-OH)}-T[Abu]P[ξNMePhe(4-NMe2)][ξPip(4-oxo)][Phg]; ester 1-C; configuration not given here)
[1]; P. falciparum, 72 h, screen at 2 μg/mL, replicate 1
  Pf_72h_%Growth_Rep1: 73.90%
[1]; P. falciparum, 72 h, screen at 2 μg/mL, replicate 2
  Pf_72h_%Growth_Rep2: 82.34%
[2]; P. falciparum, 120 h, screen at 2 μg/mL, replicate 1
  Pf_120h_%Growth_Rep1: 152.31%
[2]; P. falciparum, 120 h, screen at 2 μg/mL, replicate 2
  Pf_120h_%Growth_Rep2: 75.63%
[3]; T. gondii, screen at 2 μg/mL, replicate 1
  Tg_72h_%Growth_Rep1: 93.06%
[3]; T. gondii, screen at 2 μg/mL, replicate 2
  Tg_72h_%Growth_Rep2: 114.46%

## CC(C)=C[C@H]1C[C@H](C)[C@]2(CC[C@]3(C)C[C@@H]4C(C)=CC(=O)[C@@H]4/C(C=O)=C\C[C@H]32)O1 [Anhydroophiobolin A]
[1]; [4]
  Pf_72h_%Growth_Rep1: 9.46%
[1]; [5]
  Pf_72h_%Growth_Rep2: 6.48%
[2]; [6]
  Pf_120h_%Growth_Rep1: 0.81%
[2]; [7]
  Pf_120h_%Growth_Rep2: -1.29%
[3]; [8]
  Tg_72h_%Growth_Rep1: 154.62%
[3]; [9]
  Tg_72h_%Growth_Rep2: 91.26%

## CCC(=O)Nc1c2sscc-2n(C)c1=O [Aureothricin]
[1]; [4]
  Pf_72h_%Growth_Rep1: 7.64%
[1]; [5]
  Pf_72h_%Growth_Rep2: 5.69%
[2]; [6]
  Pf_120h_%Growth_Rep1: 11.34%
[2]; [7]
  Pf_120h_%Growth_Rep2: -0.06%
[3]; [8]
  Tg_72h_%Growth_Rep1: 1.55%
[3]; [9]
  Tg_72h_%Growth_Rep2: 1.43%

## O=c1cc(O)c2nccc3c4ccccc4n1c23 [BIA-H1963]
[1]; [10]
  Pf_72h_%Growth_Rep1: 88.88%
[1]; [11]
  Pf_72h_%Growth_Rep2: 124.49%
[2]; [12]
  Pf_120h_%Growth_Rep1: 105.89%
[2]; [13]
  Pf_120h_%Growth_Rep2: 107.63%
[3]; [14]
  Tg_72h_%Growth_Rep1: 127.63%
[3]; [15]
  Tg_72h_%Growth_Rep2: 85.33%
